Assay results from patent publication US8426353B2, “Process for preparing polyurea microcapsules” (Firmenich SA, priority 2008, dated 2013).
Where two headings read alike, the source gives them in different places.

How the values were obtained:
[1] = GC-MS analysis of perfume leaked out of the capsules during one month storage in concentrated fabric softener; format: physicochemical; settings: for Percentage of ingredient having leaked out of the capsules during one month storage, % In fabric softener 37° C.: perfume of Example 6 encapsulated per Example 2, capsules at 1.25%; for Percentage of ingredient having leaked out of the capsules during one month storage, % In fabric softener 37° C. / Percentage of perfume having leaked out of the capsules upon one month storage, % In fabric softener at 37° C.: one month at 37° C.; for Percentage of perfume having leaked out of the capsules upon one month storage, % In fabric softener at 22° C. / Percentage of perfume having leaked out of the capsules upon one month storage, % In fabric softener at 37° C.: perfume of Example 9 encapsulated per Example 2, capsules at 1.25%; for Percentage of perfume having leaked out of the capsules upon one month storage, % In fabric softener at 22° C.: one month at 22° C.
Description: The concentrated fabric softener base was prepared by admixing the ingredients listed in Table 4, in the amounts indicated.

[2] = GC-MS analysis of perfume leaked out of the capsules during one month storage in concentrated liquid detergent; format: physicochemical; settings: for Percentage of ingredient having leaked out of the capsules during one month storage, % In concentrated Liquid Detergent 22° C. / Percentage of ingredient having leaked out of the capsules during one month storage, % In concentrated Liquid Detergent 37° C.: perfume of Example 6 encapsulated per Example 2, capsules at 1.25% in Tide 2x Concentrated HE Free; for Percentage of ingredient having leaked out of the capsules during one month storage, % In concentrated Liquid Detergent 22° C. / Percentage of perfume having leaked out of the capsules upon one month storage, % In Concentrated Liquid Detergent at 22° C.: one month at 22° C.; for Percentage of ingredient having leaked out of the capsules during one month storage, % In concentrated Liquid Detergent 37° C. / Percentage of perfume having leaked out of the capsules upon one month storage, % In Concentrated Liquid Detergent at 37° C.: one month at 37° C.; for Percentage of perfume having leaked out of the capsules upon one month storage, % In Concentrated Liquid Detergent at 22° C. / Percentage of perfume having leaked out of the capsules upon one month storage, % In Concentrated Liquid Detergent at 37° C.: perfume of Example 9 encapsulated per Example 2, capsules at 1.25% in Tide 2x Concentrated HE Free
Source text: The concentrated liquid detergent base was a commercially available Tide® 2× Concentrated HE Free of perfume & dye (trademark of Procter and Gamble, USA).
The concentrated liquid detergent base was the commercially available Tide® 2× Concentrated HE Free of perfume & dye (trademark of Procter and Gamble, USA).

[3] = LogP of the perfume ingredients
[4] = ingredients of the perfume of Example 6 (Table 1)
[5] = ingredients of the perfume of Example 9 (Table 9)

Row | Molecule | Percentage of ingredient having leaked out of the capsules during one month storage, % In fabric softener 37° C. [1] [%] | Percentage of perfume having leaked out of the capsules upon one month storage, % In fabric softener at 22° C. [1] [%] | Percentage of perfume having leaked out of the capsules upon one month storage, % In fabric softener at 37° C. [1] [%] | Percentage of ingredient having leaked out of the capsules during one month storage, % In concentrated Liquid Detergent 22° C. [2] [%] | Percentage of ingredient having leaked out of the capsules during one month storage, % In concentrated Liquid Detergent 37° C. [2] [%] | Percentage of perfume having leaked out of the capsules upon one month storage, % In Concentrated Liquid Detergent at 22° C. [2] [%] | Percentage of perfume having leaked out of the capsules upon one month storage, % In Concentrated Liquid Detergent at 37° C. [2] [%] | LogP [3, 4] | LogP [3, 5] | LogP [3]
1 | CC(=O)OC(C)(C)C1CCC(C)CC1 (stereo not shown) [Dihydroterpenyl acetate] | 4 | 2 | 0 | 1 | 14 | 2 | 16 | 4.42 | 4.42 | 
2 | CC12CCC(CC1)C(C)(C)O2 [1,8-Cineole] | 11 |  |  | 2 | 21 |  |  | 3.13 |  | 
3 | C=CCOC(=O)CCCCCC [Allyl heptanoate] |  | 46 | 98 |  |  | 46 | 100 |  |  | 3.67
4 | CCCCCCC(C=O)=Cc1ccccc1 [Hexyl cinnamic aldehyde] |  | 2 | 18 |  |  | 2 | 46 |  |  | 4.82

Next, values leading:

Row | Percentage of ingredient having leaked out of the capsules during one month storage, % In fabric softener 37° C. [1] [%] | Percentage of perfume having leaked out of the capsules upon one month storage, % In fabric softener at 22° C. [1] [%] | Percentage of perfume having leaked out of the capsules upon one month storage, % In fabric softener at 37° C. [1] [%] | Percentage of ingredient having leaked out of the capsules during one month storage, % In concentrated Liquid Detergent 22° C. [2] [%] | Percentage of ingredient having leaked out of the capsules during one month storage, % In concentrated Liquid Detergent 37° C. [2] [%] | Percentage of perfume having leaked out of the capsules upon one month storage, % In Concentrated Liquid Detergent at 22° C. [2] [%] | Percentage of perfume having leaked out of the capsules upon one month storage, % In Concentrated Liquid Detergent at 37° C. [2] [%] | LogP [3, 4] | LogP [3, 5] | LogP [3] | Molecule
5 |  | 8 | 68 |  |  | 8 | 92 |  | 3.58 |  | CC(C)=CC1CC(C)CCO1 (stereo not shown) [Rose oxide]
6 |  | 6 | 10 |  |  | 6 | 80 |  | 2.85 |  | CC(=O)OC1CC2CC1C1CC=CC21 (stereo not shown) [Verdyl acetate, Verdyl Acetate]
7 | 9 |  |  | 1 | 27 |  |  |  |  | 4.45 | C=CCCC(=O)C1=CCCC(C)(C)C1 [Neobutenone ® alpha, 1-(5,5-dimethyl-1-cyclohexen-1-yl)-4-penten-1-one]
8 | 5 |  |  | 1 | 14 |  |  | 3.76 |  |  | CC(=O)OC1CC2CC1C1CC=CC21 (stereo not shown) [Verdylate]
9 | 3 | 0 | 7 | 1 | 14 | 0 | 18 |  | 4.36 | 4.36 | CC(C=O)Cc1ccc(C(C)(C)C)cc1 (stereo not shown) [Lilial ®, 3-(4-tert-butylphenyl)-2-methylpropanal]
10 |  | 3 | 17 |  |  | 3 | 37 |  | 4.34 |  | Terpenyl acetate
11 | 4 | 2 | 4 | 1 | 4 | 2 | 9 | 4.71 | 4.71 |  | CC(=O)C1(C)CC2=C(CCCC2(C)C)CC1C (stereo not shown) [Iso E super ®, 1-(octahydro-2,3,8,8-tetramethyl-2-naphtalenyl)-1-ethanone]
